According to ChEMBL document CHEMBL1201862, “PubChem BioAssay data set” (2004):
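These data come from cells grown in 96-well plates and exposed to compound for 48 hours at five concentrations. Here, GI50 denotes the concentration required for 50% inhibition of growth.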 The source made the active and inactive calls. No stated cut-off is given here; in the data, active = GI50 up to about 1.1 µM and inactive = higher.

Experiments:
Assay in all cases: growth of human tumour cells (NCI), 48 h
NCI-H23 = system: NCI-H23
T47D = system: T47D
HL-60 = system: HL-60
COLO 205 = system: COLO 205
OVCAR-5 = system: OVCAR-5
IGROV-1 = system: IGROV-1
MDA-MB-435 = system: MDA-MB-435
MDA-N = system: MDA-N
EKVX = system: EKVX
NCI/ADR-RES = system: NCI/ADR-RES
UO-31 = system: UO-31
CCRF-CEM = system: CCRF-CEM
BT-549 = system: BT-549
SK-OV-3 = system: SK-OV-3
OVCAR-8 = system: OVCAR-8
TK-10 = system: TK-10
ACHN = system: ACHN
OVCAR-3 = system: OVCAR-3
Hs-578T = system: Hs-578T

Structure (SMILES) | GI50 (NCI-H23) | GI50 (T47D) | GI50 (HL-60) | GI50 (COLO 205) | GI50 (OVCAR-5) | GI50 (IGROV-1) | GI50 (MDA-MB-435) | GI50 (MDA-N) | GI50 (EKVX) | GI50 (NCI/ADR-RES) | GI50 (UO-31) | GI50 (CCRF-CEM) | GI50 (BT-549) | GI50 (SK-OV-3) | GI50 (OVCAR-8) | GI50 (TK-10) | GI50 (ACHN) | GI50 (OVCAR-3) | GI50 (Hs-578T)
CC(C)(C)c1ccc(OCC(=O)O)c(Cl)c1 | > 100 µM (inactive) | > 100 µM (inactive) | > 100 µM (inactive) | > 100 µM (inactive) | > 100 µM (inactive) | > 100 µM (inactive) | > 100 µM (inactive) | > 100 µM (inactive) | > 100 µM (inactive) | > 100 µM (inactive) | > 100 µM (inactive) | > 100 µM (inactive) | > 100 µM (inactive) | > 100 µM (inactive) | > 100 µM (inactive) | > 100 µM (inactive) | > 100 µM (inactive) | 60.4 µM (inactive) | > 100 µM (inactive)
CN1C2CCC1C(C(O)c1ccccc1[N+](=O)[O-])C(=O)C2 (stereo unspecified) | 73.8 µM (inactive) | 26.6 µM (inactive) | 31.8 µM (inactive) | 34.6 µM (inactive) | > 100 µM (inactive) | 24.9 µM (inactive) | 23.6 µM (inactive) | 27 µM (inactive) | > 100 µM (inactive) | 23.4 µM (inactive) | 47.1 µM (inactive) | 46.9 µM (inactive) | 43.9 µM (inactive) | > 100 µM (inactive) | 31.6 µM (inactive) | > 100 µM (inactive) | > 100 µM (inactive) | 34.7 µM (inactive) | 53.2 µM (inactive)
CCOP(=O)(OCC)/C(C#N)=C\c1cccc2ccccc12 | 78.3 µM (inactive) | 26.8 µM (inactive) | 23 µM (inactive) | 91.8 µM (inactive) | > 100 µM (inactive) | > 82.4 µM (inactive) | 34.7 µM (inactive) | 40.6 µM (inactive) | 31.9 µM (inactive) | 52.7 µM (inactive) | 56.9 µM (inactive) | 30.1 µM (inactive) | 51.9 µM (inactive) | 45.5 µM (inactive) | > 45.7 µM (inactive) | > 100 µM (inactive) | > 75.9 µM (inactive) | > 55.7 µM (inactive) | 20.2 µM (inactive)
CC(=O)c1[nH]c(Nc2ccc(C)cc2)c(C(=S)Nc2ccccc2)c1N | 17.8 µM (inactive) | 12.8 µM (inactive) | 15.8 µM (inactive) | 23.9 µM (inactive) | 32.9 µM (inactive) | 16.8 µM (inactive) | 15 µM (inactive) | 16 µM (inactive) | 24.3 µM (inactive) | 26.8 µM (inactive) | 13.2 µM (inactive) | 21 µM (inactive) | 15.6 µM (inactive) | 34.3 µM (inactive) | 18.1 µM (inactive) | 17.3 µM (inactive) | 18.8 µM (inactive) | 15.2 µM (inactive) | 20 µM (inactive)
CC(C)(C)OC(=O)N1CCC2(CC1)C(=O)NCN2c1ccccc1 | > 100 µM (inactive) | > 100 µM (inactive) | 92.7 µM (inactive) | > 100 µM (inactive) | > 100 µM (inactive) | > 100 µM (inactive) | > 100 µM (inactive) | > 100 µM (inactive) | > 100 µM (inactive) | > 100 µM (inactive) | > 100 µM (inactive) | > 100 µM (inactive) | > 100 µM (inactive) | > 100 µM (inactive) | > 100 µM (inactive) | > 100 µM (inactive) | > 100 µM (inactive) | > 100 µM (inactive) | > 100 µM (inactive)
O=C(CCCN1CCC2(CC1)CC(=O)N(N1CCCCCC1)C2=O)c1ccc(F)cc1 | 54.2 µM (inactive) | 77.1 µM (inactive) | 14.1 µM (inactive) | > 100 µM (inactive) | 41.7 µM (inactive) | > 100 µM (inactive) | > 100 µM (inactive) | > 100 µM (inactive) | > 100 µM (inactive) | 18.2 µM (inactive) | 91.6 µM (inactive) | 5.7 µM (inactive) | 65.5 µM (inactive) | 91.6 µM (inactive) | 18.5 µM (inactive) | > 100 µM (inactive) | > 100 µM (inactive) | > 100 µM (inactive) | 35.7 µM (inactive)
O=C1/C(=C/c2ccc([N+](=O)[O-])cc2)Sc2scc(-c3cccc([N+](=O)[O-])c3)[n+]21 | 7.93 µM (inactive) | 3.35 µM (inactive) | 0.331 µM (active) | 1.85 µM (inactive) | 8.89 µM (inactive) | 2.91 µM (inactive) | 5.46 µM (inactive) | 4.35 µM (inactive) | 6.7 µM (inactive) | 5.89 µM (inactive) | 8.51 µM (inactive) | 0.364 µM (active) | 5.36 µM (inactive) | 15.9 µM (inactive) | 6.11 µM (inactive) | 5.18 µM (inactive) | 3.97 µM (inactive) | 4.24 µM (inactive) | 8.81 µM (inactive)
CC12ON(P(=O)(c3ccccc3)c3ccccc3)C(C)(c3ccccc31)c1ccccc12 | > 100 µM (inactive) | 51.3 µM (inactive) | 55.6 µM (inactive) | > 100 µM (inactive) | > 100 µM (inactive) | > 100 µM (inactive) | > 100 µM (inactive) | > 100 µM (inactive) | > 100 µM (inactive) | > 100 µM (inactive) | > 100 µM (inactive) | 46.2 µM (inactive) | > 100 µM (inactive) | > 100 µM (inactive) | > 100 µM (inactive) | > 100 µM (inactive) | > 100 µM (inactive) | > 100 µM (inactive) | > 100 µM (inactive)
CCOC(=O)CC[C@H](NC(=O)[C@H](N)Cc1ccc(N(CCCl)CCCl)cc1)C(=O)OCC | 3.08 µM (inactive) | 8.07 µM (inactive) | 5.3 µM (inactive) | 20.7 µM (inactive) | 26.4 µM (inactive) | 40.6 µM (inactive) | 26.9 µM (inactive) | 23.2 µM (inactive) | > 42.6 µM (inactive) | 9.42 µM (inactive) | 14.1 µM (inactive) | 1.14 µM (inactive) | 26.2 µM (inactive) | 36.3 µM (inactive) | 10.6 µM (inactive) | > 54.5 µM (inactive) | 4.76 µM (inactive) | 8.28 µM (inactive) | 22.3 µM (inactive)
O=C(O)c1nc2cc(Cl)ccc2[nH]c1=O | > 100 µM (inactive) | > 100 µM (inactive) | > 100 µM (inactive) | > 100 µM (inactive) | > 100 µM (inactive) | > 100 µM (inactive) | > 100 µM (inactive) | > 100 µM (inactive) | > 100 µM (inactive) | > 100 µM (inactive) | > 100 µM (inactive) | > 100 µM (inactive) | > 100 µM (inactive) | > 100 µM (inactive) | > 100 µM (inactive) | > 100 µM (inactive) | > 100 µM (inactive) | > 100 µM (inactive) | > 100 µM (inactive)
Cc1ccc(S(=O)(=O)N(CC(O)c2ccccc2)c2ccccc2F)cc1 (stereo unspecified) | 16.6 µM (inactive) | 14.5 µM (inactive) | 1.13 µM (inactive) | 15.4 µM (inactive) | 19.2 µM (inactive) | 21.7 µM (inactive) | 16.2 µM (inactive) | 15.7 µM (inactive) | 35.6 µM (inactive) | 16.4 µM (inactive) | 16.2 µM (inactive) | 25.3 µM (inactive) | 16.6 µM (inactive) | 17.4 µM (inactive) | 19.3 µM (inactive) | 19.7 µM (inactive) | 20.2 µM (inactive) | 11.3 µM (inactive) | 16.9 µM (inactive)
COC(=O)C1=CO[C@@H](OC2OC(CO)C(O)C(O)C2O)[C@@H]2[C@H](C)[C@@H](O)[C@@H](O)[C@]12O (stereo partly specified) | > 100 µM (inactive) | > 100 µM (inactive) | > 100 µM (inactive) | > 100 µM (inactive) | > 100 µM (inactive) | > 100 µM (inactive) | > 100 µM (inactive) | > 100 µM (inactive) | > 100 µM (inactive) | > 100 µM (inactive) | > 100 µM (inactive) | > 10 µM (inactive) | > 100 µM (inactive) | > 100 µM (inactive) | > 100 µM (inactive) | > 100 µM (inactive) | > 100 µM (inactive) | > 100 µM (inactive) | > 100 µM (inactive)
COc1cccc(/C=N/C(/N=C/c2cccc(OC)c2O)c2cccc(OC)c2O)c1O | 28.8 µM (inactive) | 15.2 µM (inactive) | 25.9 µM (inactive) | 32.1 µM (inactive) | 22 µM (inactive) | 21.7 µM (inactive) | 28.3 µM (inactive) | 26.4 µM (inactive) | 19.2 µM (inactive) | 19.6 µM (inactive) | 20.1 µM (inactive) | 7 µM (inactive) | 19.6 µM (inactive) | 26 µM (inactive) | 12.6 µM (inactive) | 15.7 µM (inactive) | 21.5 µM (inactive) | 11.7 µM (inactive) | 17.6 µM (inactive)
CC(C)(C)C(=O)N(C(=S)OCc1ccccn1)c1ccccc1 | 35.3 µM (inactive) | 20 µM (inactive) | 19.9 µM (inactive) | 21.8 µM (inactive) | 32.4 µM (inactive) | 19.9 µM (inactive) | > 100 µM (inactive) | 41.6 µM (inactive) | 15.5 µM (inactive) | 23.1 µM (inactive) | 27.8 µM (inactive) | 22.6 µM (inactive) | 42.1 µM (inactive) | > 100 µM (inactive) | 31.6 µM (inactive) | > 100 µM (inactive) | 38.5 µM (inactive) | 30.9 µM (inactive) | 39 µM (inactive)
